Results from the supplement of paper PMC10307832.

What was measured:
Assay in all cases: relative viability (nuclei count vs DMSO), 5 days (fraction); higher = more cells survive
Tipifarnib + Decitabine = compound: Cn1cncc1[C@@](N)(c1ccc(Cl)cc1)c1ccc2c(c1)c(-c1cccc(Cl)c1)cc(=O)n2C [Tipifarnib] + Nc1ncn([C@H]2C[C@H](O)[C@@H](CO)O2)c(=O)n1 [Decitabine] (partner 2 µM)
Summary of the method: (§1)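 Medians of duplicate plates are given as relative viability. That measure is the nuclei count in treated wells divided by the count in vehicle wells. Counts were taken on 4× images of lung cancer cell lines in 1536-well plates, 5 days after pin-tool dosing the day after seeding with one drug alone or a fixed anchor-drug dose plus five library-drug doses (not always all listed) in √10 steps.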

Tipifarnib + Olaparib = compound: Cn1cncc1[C@@](N)(c1ccc(Cl)cc1)c1ccc2c(c1)c(-c1cccc(Cl)c1)cc(=O)n2C [Tipifarnib] + O=C(c1cc(Cc2n[nH]c(=O)c3ccccc23)ccc1F)N1CCN(C(=O)C2CC2)CC1 [Olaparib] (partner 8 µM)
Summary of the method: as §1

Tipifarnib + Luminespib = compound: Cn1cncc1[C@@](N)(c1ccc(Cl)cc1)c1ccc2c(c1)c(-c1cccc(Cl)c1)cc(=O)n2C [Tipifarnib] + CCNC(=O)c1noc(-c2cc(C(C)C)c(O)cc2O)c1-c1ccc(CN2CCOCC2)cc1 [Luminespib] (partner 0.01 µM)
Summary of the method: as §1

Tipifarnib + Lapatinib = compound: Cn1cncc1[C@@](N)(c1ccc(Cl)cc1)c1ccc2c(c1)c(-c1cccc(Cl)c1)cc(=O)n2C [Tipifarnib] + CS(=O)(=O)CCNCc1ccc(-c2ccc3ncnc(Nc4ccc(OCc5cccc(F)c5)c(Cl)c4)c3c2)o1 [Lapatinib] (partner 2 µM)
Summary of the method: as §1

Cell Line | relative viability (Tipifarnib + Decitabine; first compound 0.01 µM) | relative viability (Tipifarnib + Decitabine; first compound 0.03162 µM) | relative viability (Tipifarnib + Decitabine; first compound 0.1 µM) | relative viability (Tipifarnib + Decitabine; first compound 0.3162 µM) | relative viability (Tipifarnib + Decitabine; first compound 1 µM) | relative viability (Tipifarnib + Olaparib; first compound 0.01 µM) | relative viability (Tipifarnib + Olaparib; first compound 0.03162 µM) | relative viability (Tipifarnib + Olaparib; first compound 0.1 µM) | relative viability (Tipifarnib + Olaparib; first compound 0.3162 µM) | relative viability (Tipifarnib + Olaparib; first compound 1 µM) | relative viability (Tipifarnib + Luminespib; first compound 0.01 µM) | relative viability (Tipifarnib + Luminespib; first compound 0.03162 µM) | relative viability (Tipifarnib + Luminespib; first compound 0.1 µM) | relative viability (Tipifarnib + Luminespib; first compound 0.3162 µM) | relative viability (Tipifarnib + Luminespib; first compound 1 µM) | relative viability (Tipifarnib + Lapatinib; first compound 0.01 µM) | relative viability (Tipifarnib + Lapatinib; first compound 0.03162 µM) | relative viability (Tipifarnib + Lapatinib; first compound 0.1 µM) | relative viability (Tipifarnib + Lapatinib; first compound 0.3162 µM) | relative viability (Tipifarnib + Lapatinib; first compound 1 µM)
NCI-H1437 | 0.597 | 0.618 | 0.613 | 0.635 | 0.593 | 0.656 | 0.638 | 0.643 | 0.585 | 0.608 | 1.25 | 1.17 | 1.15 | 0.913 | 1.07 | 0.873 | 0.864 | 0.738 | 0.727 | 0.248
NCI-H2009 | 0.382 | 0.378 | 0.362 | 0.357 | 0.323 | 0.729 | 0.714 | 0.585 | 0.558 | 0.469 | 0.955 | 0.827 | 0.786 | 0.528 | 0.599 | 0.99 | 0.707 | 0.708 | 0.602 | 0.326
NCI-H1651 | 0.667 | 0.597 | 0.658 | 0.761 | 0.421 | 0.213 | 0.194 | 0.236 | 0.22 | 0.222 | 0.921 | 0.934 | 0.797 | 0.684 | 0.753 | 0.931 | 0.799 | 0.919 | 0.85 | 0.426
NCI-H1666 | 0.698 | 0.739 | 0.768 | 0.598 | 0.571 | 0.737 | 0.672 | 0.779 | 0.731 | 0.721 | 1 | 0.92 | 0.94 | 0.842 | 0.806 | 0.666 | 0.61 | 0.591 | 0.474 | 0.388
NCI-H1734 | 0.565 | 0.485 | 0.557 | 0.434 | 0.369 | 0.626 | 0.615 | 0.54 | 0.494 | 0.482 | 0.198 | 0.147 | 0.171 | 0.168 | 0.164 | 1.18 | 0.995 | 0.682 | 0.618 | 0.431
EPLC-272H | 0.426 | 0.404 | 0.37 | 0.298 | 0.246 | 0.86 | 0.481 | 0.578 | 0.35 | 0.222 | 0.196 | 0.267 | 0.233 | 0.378 | 0.173 | 1.02 | 0.88 | 0.761 | 0.64 | 0.216
NCI-H2023 | 0.219 | 0.2 | 0.215 | 0.176 | 0.165 | 0.489 | 0.36 | 0.373 | 0.298 | 0.343 | 0.749 | 0.486 | 0.386 | 0.337 | 0.286 | 1.01 | 0.544 | 0.348 | 0.357 | 0.105
BEN | 0.748 | 0.759 | 0.66 | 0.699 | 0.503 | 1.26 | 1.11 | 0.954 | 0.96 | 0.954 | 0.324 | 0.459 | 0.226 | 0.17 | 0.351 | 0.743 | 0.842 | 0.629 | 0.578 | 0.568
COR-L 105 | 0.635 | 0.636 | 0.478 | 0.479 | 0.473 | 0.691 | 0.725 | 0.59 | 0.546 | 0.584 | 0.692 | 0.775 | 0.475 | 0.432 | 0.675 | 0.418 | 0.317 | 0.349 | 0.378 | 0.296
ABC-1 | 1.33 | 1.03 | 1.13 | 0.738 | 0.706 | 0.7 | 0.776 | 0.819 | 0.986 | 0.912 | 0.914 | – | 0.321 | 0.347 | 0.278 | 1.37 | 1.39 | 1.58 | 1.39 | 1.59
HCC-15 | 0.496 | 0.523 | 0.48 | 0.263 | 0.238 | 0.758 | 0.75 | 0.793 | 0.631 | 0.56 | 0.332 | 0.306 | 0.245 | 0.302 | 0.357 | 0.802 | 0.702 | 0.639 | 0.488 | 0.215
NCI-H2170 | 0.533 | 0.441 | 0.465 | 0.43 | 0.412 | 0.687 | 0.582 | 0.536 | 0.47 | 0.474 | 0.406 | 0.555 | 0.619 | 0.282 | 0.691 | 0.245 | 0.271 | 0.272 | 0.265 | 0.248
PC-3 [JPC-3] | 0.866 | 0.872 | 0.828 | 0.644 | 0.648 | 1.19 | 0.978 | 0.981 | 0.775 | 0.654 | 0.74 | 0.694 | 0.66 | 0.458 | 0.409 | 0.461 | 0.489 | 0.431 | 0.38 | 0.311
NCI-H1993 | 0.666 | 0.551 | 0.579 | 0.528 | 0.545 | 1.04 | 0.94 | 0.937 | 0.701 | 0.604 | 0.697 | 0.644 | 0.57 | 0.504 | 0.481 | 0.747 | 0.835 | 0.699 | 0.716 | 0.779
NCI-H358 | 0.202 | 0.203 | 0.243 | 0.278 | 0.183 | 0.607 | 0.578 | 0.542 | 0.48 | 0.34 | 0.246 | 0.297 | 0.212 | 0.212 | 0.214 | 0.455 | 0.444 | 0.443 | 0.424 | 0.352
NCI-H1915 | 0.272 | 0.245 | 0.284 | 0.232 | 0.257 | 0.237 | 0.248 | 0.25 | 0.231 | 0.242 | 0.681 | 0.638 | 0.48 | 0.44 | 0.428 | 0.927 | 0.67 | 0.56 | 0.416 | 0.282
